In patent publication US20260151375A1, “CDK2 INHIBITORS AND METHODS OF USING THE SAME” (Cedilla Therapeutics, Inc., priority 2022, published 2026):
Read-outs that look alike come from different tables or passages of the source.

Assays:
Kuramochi cells = experiment: IncuCyte Kuramochi Assay (cell proliferation); assay type: cell-based; conditions: Kuramochi cells labeled with mApple-H2B, cell count, read-out: IncuCyte - Kuramochi RB-WT: IC50
Protocol: IncuCyte® assay was used to measure the effect of disclosed compounds on cell proliferation. Fluorescent microscopy images of cells were taken immediately after compound treatment and 72 hours later. Image analysis software was used to obtain cell counts as a function of compound concentration. Kuramochi cells labeled with mApple-H2B were seeded on 384-well assay-ready plates. Plates were placed in an IncuCyte® (Sartorius) and scanned at 0 and 72 hours. IncuCyte® software was used to count the number of fluorescent nuclei in each well. The fold change in cell count from 0 to 72 hours in wells treated with increasing compounds concentrations (10 pts, ½ log dilution, 20 μM top concentration) was normalized to DMSO control wells. The normalized cell counts were fit with dose response curves and a […] was calculated.

CDK2/Cyclin E1 = target: T1, CDK2/Cyclin E1 (Homo sapiens, UniProt P24941); experiment: Caliper Assay (LabChip EZ Reader mobility shift assay), inhibition of CDK2/Cyclin E1 activity; assay type: biochemical; conditions: 2.5 nM CDK2/Cyclin E1(14-475), 100 μM ATP, 30 min preincubation; read-out: Caliper Assay (CDK2/CCNE1): IC50
T1 construct: purchased 14-475
Protocol: Inhibition of CDK2/Cyclin E1 activity in the presence of compounds of the present disclosure was evaluated using a Caliper LabChip® EZ Reader mobility shift assay. In the assay, activated CDK2/Cyclin E1 catalyzes the phosphorylation of a fluorescently tagged peptide 5-FAM-QSPKKG-CONH2 (PerkinElmer, FL Peptide 18) which induces a difference in capillary electrophoresis mobility. The peptide substrate and product were measured, and the conversion ratio was used to determine the inhibition (as % activity and IC50 values) of CDK2/Cyclin E1. Reactions contained 50 mM HEPES pH 7.5, 10 mM MgCl2, 1 mM EDTA, 2 mM DTT, 0.01% Brij35, 0.5 mg/mL BSA, 0.1% DMSO, 2.5 nM CDK2/Cyclin E1(14-475), 100 μM ATP, and 1.5 μM fluorescent peptide substrate.
Dose titrations of inhibitors in 100% DMSO were combined with 3.25 nM CDK2/Cyclin E1(14-475) and 130 μM of ATP in reaction buffer. The mixtures were incubated for 30 minutes before the addition of fluorescent peptide substrate to initiate the kinase reaction. The final conditions were 2.5 nM CDK2/Cyclin E1(14-475), 100 μM ATP, and 1.5 μM fluorescent peptide. The reactions were stopped after 100 minutes with the addition of EDTA (6 mM final EDTA concentration). The stopped reactions were analyzed on a Caliper LabChip© EZ Reader II. The conversion ratios were normalized to yield % activity, plotted against compound concentration, and fit to a four-parameter equation to determine the IC50 for each compound.

SMILES	IC50 (Kuramochi cells; 72 h) [µM]	IC50 (CDK2/Cyclin E1) [µM]	IC50 (Kuramochi cells; 72 hours) [µM]
Cc1cc(C)n(C(C)c2nc(C3CN(C(=O)c4cnn(Cc5ccccc5)c4)CC34CN(C(=O)[C@H]3CC3(C)C)C4)no2)n1 (single isomer, unassigned) [I-2]	5 to 10	–	–
CC(c1nc(C2CN(C(=O)c3cncs3)CC23CN(C(=O)[C@H]2CC2(C)C)C3)no1)n1ccc(C2CCCC2)n1 (single isomer, unassigned) [I-36 1st]	> 10	0.01 to 0.1	–
CC(c1nc(C2CN(C(=O)c3cncs3)CC23CN(C(=O)[C@H]2CC2(C)C)C3)no1)n1ccc(C2CCCC2)n1 (single isomer, unassigned) [I-36 4th]	–	0.01 to 0.1	> 10
CC(c1nc(C2CN(C(=O)c3cncs3)CC23CN(C(=O)[C@H]2CC2(C)C)C3)no1)n1ccc(C2CCCC2)n1 (single isomer, unassigned) [I-36 5th]	–	≤ 0.01	> 10
CC1(C)CC1C(=O)N1CC2(CN(C(=O)c3cncs3)CC2(F)c2nnc(C(F)(F)c3ccc(Cl)c(Cl)c3)o2)C1 (single isomer, unassigned) [I-38 1st]	> 10	> 10	–
CC1(C)C[C@@H]1C(=O)N1CC2(CN(C(=O)c3cncs3)CC2(F)c2nnc(C(F)(F)c3ccc(Cl)c(Cl)c3)o2)C1 (single isomer, unassigned) [I-38 2nd]	> 10	1 to 10	–
CC1(C)C[C@@H]1C(=O)N1CC2(CN(C(=O)c3cncs3)CC2(F)c2nnc(C(F)(F)c3ccc(Cl)c(Cl)c3)o2)C1 (single isomer, unassigned) [I-38 3rd]	–	> 10	> 10
CC1(C)C[C@@H]1C(=O)N1CC2(CN(C(=O)c3cnccn3)CC2c2nnc(C(F)(F)c3ccc(Cl)c(Cl)c3)o2)C1 (single isomer, unassigned) [I-45 1st]	> 10	0.1 to 1	–
O=C(c1onc2ccccc12)N1CC(c2nnc(C(F)(F)c3ccc(Cl)c(Cl)c3)o2)C2(C1)CN(C(=O)[C@H]1CC1(F)F)C2 (single isomer, unassigned) [I-151 1st]	> 10	> 10	–
O=C(c1onc2ccccc12)N1CC(c2nnc(C(F)(F)c3ccc(Cl)c(Cl)c3)o2)C2(C1)CN(C(=O)[C@H]1CC1(F)F)C2 (single isomer, unassigned) [I-151 2nd]	–	1 to 10	> 10
CC1(C)C[C@@H]1C(=O)N1CC2(CN(C(=O)c3cnn(Cc4ccccc4)c3)CC2c2noc(Cc3ccc(Cl)cc3)n2)C1 (some centres unmarked) [I-1]	5 to 10	0.1 to 1	–
CCO[C@H]1C[C@@H](c2nc(C3CN(C(=O)c4cnn(Cc5ccccc5)c4)CC34CN(C(=O)[C@H]3CC3(C)C)C4)no2)C1 (some centres unmarked) [I-3]	> 10	1 to 10	–
CC1(C)C[C@@H]1C(=O)N1CC2(CN(C(=O)c3cnn(Cc4ccccc4)c3)CC2c2nnc(Cc3ccc(Cl)c(Cl)c3)o2)C1 (some centres unmarked) [I-4]	–	1 to 10	> 10
CC1(C)C[C@@H]1C(=O)N1CC2(CN(C(=O)c3cnn(Cc4ccccc4)c3)CC2c2nnc(Nc3ccc(Br)cc3)o2)C1 (stereo partly drawn) [I-5, (1-benzyl-1H-pyrazol-4-yl)(8-(5-((4-bromophenyl)amino)-1,3,4-oxadiazol-2-yl)-2-((S)-2,2-dimethylcyclopropane-1-carbonyl)-2,6-diazaspiro[3.4]octan-6-yl)methanone]	> 10	1 to 10	–
CC1(C)C[C@@H]1C(=O)N1CC2(CN(C(=O)c3cnn(Cc4ccccc4)c3)CC2c2nnc(Cc3ccc(Cl)c(Cl)c3)[nH]2)C1 (stereo partly drawn) [I-6, (1-benzyl-1H-pyrazol-4-yl)(8-(5-(3,4-dichlorobenzyl)-4H-1,2,4-triazol-3-yl)-2-((S)-2,2-dimethylcyclopropane-1-carbonyl)-2,6-diazaspiro[3.4]octan-6-yl)methanone]	5 to 10	1 to 10	–
CC1(C)C[C@@H]1C(=O)N1CC2(CN(C(=O)c3cnn(Cc4ccccc4)c3)CC2c2cc(NC(=O)C3CC3)on2)C1 (stereo partly drawn) [I-7, N-(3-(6-(1-benzyl-1H-pyrazole-4-carbonyl)-2-((S)-2,2-dimethylcyclopropane-1-carbonyl)-2,6-diazaspiro[3.4]octan-8-yl)isoxazol-5-yl)cyclopropanecarboxamide]	5 to 10	0.1 to 1	–
CC1(C)C[C@@H]1C(=O)N1CC2(CN(C(=O)c3cnn(Cc4ccccc4)c3)CC2c2ncc(Cc3ccc(Cl)cc3)o2)C1 (stereo partly drawn) [I-8, (1-benzyl-1H-pyrazol-4-yl)(8-(5-(4-chlorobenzyl)oxazol-2-yl)-2-((S)-2,2-dimethylcyclopropane-1-carbonyl)-2,6-diazaspiro[3.4]octan-6-yl)methanone]	5 to 10	0.1 to 1	–

SMILES	IC50 (Kuramochi cells; 72 h) [µM]	IC50 (CDK2/Cyclin E1) [µM]	IC50 (Kuramochi cells; 72 hours) [µM]
Cc1cc(C)n(C(C)c2nc(C3CN(C(=O)c4cncs4)CC34CN(C(=O)[C@H]3CC3(C)C)C4)no2)n1 (stereo partly drawn) [I-9, (8-(5-(1-(3,5-dimethyl-1H-pyrazol-1-yl)ethyl)-1,2,4-oxadiazol-3-yl)-2-((S)-2,2-dimethylcyclopropane-1-carbonyl)-2,6-diazaspiro[3.4]octan-6-yl)(thiazol-5-yl)methanone]	> 10	1 to 10	–
Cc1ccc(CNC(=O)c2coc(C3CN(C(=O)c4cnn(Cc5ccccc5)c4)CC34CN(C(=O)[C@H]3CC3(C)C)C4)n2)nn1 (some centres unmarked) [I-10]	> 10	> 10	–
C[C@@H](NC(=O)c1coc(C2CN(C(=O)c3cnn(Cc4ccccc4)c3)CC23CN(C(=O)[C@H]2CC2(C)C)C3)n1)c1ccccc1 (some centres unmarked) [I-11]	≤ 0.5	1 to 10	–
CC1(C)C[C@@H]1C(=O)N1CC2(CN(C(=O)c3cnn(Cc4ccccc4)c3)CC2c2nnc(CC3CCOCC3)o2)C1 (some centres unmarked) [I-12]	> 10	1 to 10	–
Cc1cc(C)n(Cc2nnc(C3CN(C(=O)c4cnn(Cc5ccccc5)c4)CC34CN(C(=O)[C@H]3CC3(C)C)C4)o2)n1 (some centres unmarked) [I-13]	> 10	1 to 10	–
CC1(C)C[C@@H]1C(=O)N1CC2(CN(C(=O)c3cnn(Cc4ccccc4)c3)CC2c2nnc(Cc3cncnc3)o2)C1 (stereo partly drawn) [I-14, (1-benzyl-1H-pyrazol-4-yl)(2-((S)-2,2-dimethylcyclopropane-1-carbonyl)-8-(5-(pyrimidin-5-ylmethyl)-1,3,4-oxadiazol-2-yl)-2,6-diazaspiro[3.4]octan-6-yl)methanone]	> 10	1 to 10	–
CC1(C)C[C@@H]1C(=O)N1CC2(CN(C(=O)c3cnn(Cc4ccccc4)c3)C[C@@H]2c2nnc(Cc3ccc(Cl)c(Cl)c3)o2)C1 [I-16, (1-benzyl-1H-pyrazol-4-yl)((R)-8-(5-(3,4-dichlorobenzyl)-1,3,4-oxadiazol-2-yl)-2-((S)-2,2-dimethylcyclopropane-1-carbonyl)-2,6-diazaspiro[3.4]octan-6-yl)methanone]	> 10	1 to 10	–
CC1(C)C[C@@H]1C(=O)N1CC2(CN(C(=O)c3cnn(Cc4ccccc4)c3)CC2c2nnc(CCC3CCC(F)(F)CC3)o2)C1 (some centres unmarked) [I-17]	> 10	0.1 to 1	–
Cc1cc(C)n(C(C)c2nnc(C3CN(C(=O)c4cnn(Cc5ccccc5)c4)CC34CN(C(=O)[C@H]3CC3(C)C)C4)o2)n1 (some centres unmarked) [I-18]	> 10	0.1 to 1	–
CC1(C)C[C@@H]1C(=O)N1CC2(CN(C(=O)c3cnn(Cc4ccccc4)c3)CC2c2nnc(CC3CCC(F)(F)CC3)o2)C1 (some centres unmarked) [I-20]	> 10	1 to 10	–
Cc1cc(C)n([C@@H](C)c2nc(C3CN(C(=O)c4cnn(Cc5ccccc5)c4)CC34CN(C(=O)[C@H]3CC3(C)C)C4)no2)n1 (stereo partly drawn) [I-21, (1-benzyl-1H-pyrazol-4-yl)(8-(5-(1-(3,5-dimethyl-1H-pyrazol-1-yl)ethyl)-1,2,4-oxadiazol-3-yl)-2-((S)-2,2-dimethylcyclopropane-1-carbonyl)-2,6-diazaspiro[3.4]octan-6-yl)methanone]	> 10	0.1 to 1	–
Cc1ccc(Cc2nnc(C3CN(C(=O)c4cnn(Cc5ccccc5)c4)CC34CN(C(=O)[C@H]3CC3(C)C)C4)o2)nn1 (some centres unmarked) [I-22]	> 10	1 to 10	–
CC1(C)C[C@@H]1C(=O)N1CC2(CN(C(=O)c3cnn(Cc4ccccc4)c3)CC2c2nnc(Cc3ccncc3)o2)C1 (some centres unmarked) [I-23]	> 10	0.1 to 1	–
CC1(C)C[C@@H]1C(=O)N1CC2(CN(C(=O)c3cnn(Cc4ccccc4)c3)CC2c2nnc(Cc3ccc(Cl)c(Cl)c3)o2)C1 (some centres unmarked) [I-24]	5 to 10	0.1 to 1	–
CC1(C)C[C@@H]1C(=O)N1CC2(CN(C(=O)c3cncs3)CC2c2nnc(Cc3cccc(C4CCOCC4)n3)o2)C1 (some centres unmarked) [I-25]	> 10	0.1 to 1	–
CC1(C)C[C@@H]1C(=O)N1CC2(CN(C(=O)c3cncs3)CC2c2nnc(Cc3cc4ccccc4[nH]3)o2)C1 (some centres unmarked) [I-26]	> 10	1 to 10	–
